Reference: PubChem BioAssay AID248 (DTP/NCI, 2004)
Where “and” joins values, the source holds several entries; their conditions need not be identical. Equal entries are not always repeated. Toxic doses and inconclusive results are not listed. Rule as the data show it: active = T/C of 150% or more; inactive = T/C below 125%.

System: L1210 leukemia ip in BDF1 mice, survival T/C
Experiment: NCI In Vivo Anticancer Drug Screen. Data for tumor model L1210 Leukemia (intraperitoneal) in B6D2F1 (BDF1) mice
Conditions: endpoint: mean survival time, higher = longer survival
Method in brief: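 Transplanted-tumor mice were given test agent; controls received vehicle only. Survival readings from the two groups were divided (treated over control).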

[1] = dose: 100.0 mg/kg/injection, schedule: Q01DX001 (ip), vehicle: saline
[2] = dose: 200.0 mg/kg/injection, schedule: Q01DX001 (ip), vehicle: saline
[3] = dose: 400.0 mg/kg/injection, schedule: Q01DX001 (ip), vehicle: saline
[4] = dose: 100.0 mg/kg/injection, schedule: Q01DX009 (ip), vehicle: Klucel (hydroxypropylcellulose) (HPC)
[5] = dose: 100.0 mg/kg/injection, schedule: Q04DX002 (ip), vehicle: Klucel (hydroxypropylcellulose) (HPC)
[6] = dose: 200.0 mg/kg/injection, schedule: Q04DX002 (ip), vehicle: Klucel (hydroxypropylcellulose) (HPC)
[7] = dose: 400.0 mg/kg/injection, schedule: Q04DX002 (ip), vehicle: Klucel (hydroxypropylcellulose) (HPC)
[8] = dose: 200.0 mg/kg/injection, schedule: Q01DX009 (ip), vehicle: Klucel (hydroxypropylcellulose) (HPC)
[9] = dose: 400.0 mg/kg/injection, schedule: Q01DX009 (ip), vehicle: Klucel (hydroxypropylcellulose) (HPC)

Measured: T/C

COc1ccccc1NC(=O)N(CCCl)N=O
active: dose: 5.3 mg/kg/injection, schedule: Q01DX009 (ip), vehicle: carboxymethylcellulose (CMC) 165 % of control | dose: 8.0 mg/kg/injection, schedule: Q01DX009 (ip), vehicle: carboxymethylcellulose (CMC) 166 % of control and 236 % of control | dose: 12.0 mg/kg/injection, schedule: Q01DX009 (ip), vehicle: carboxymethylcellulose (CMC) 214 % of control and 247 % of control
inactive: dose: 0.8 mg/kg/injection, schedule: Q01DX001 (ip), vehicle: carboxymethylcellulose (CMC) 110 % of control | dose: 1.5 mg/kg/injection, schedule: Q01DX001 (ip), vehicle: carboxymethylcellulose (CMC) 106 % of control | dose: 1.5 mg/kg/injection, schedule: Q01DX009 (ip), vehicle: carboxymethylcellulose (CMC) 97 % of control | dose: 3.0 mg/kg/injection, schedule: Q01DX001 (ip), vehicle: carboxymethylcellulose (CMC) 108 % of control | dose: 3.5 mg/kg/injection, schedule: Q01DX009 (ip), vehicle: carboxymethylcellulose (CMC) 118 % of control and 124 % of control | dose: 6.0 mg/kg/injection, schedule: Q01DX001 (ip), vehicle: carboxymethylcellulose (CMC) 117 % of control | dose: 18.0 mg/kg/injection, schedule: Q01DX009 (ip), vehicle: carboxymethylcellulose (CMC) 116 % of control and 123 % of control | dose: 100.0 mg/kg/injection, schedule: Q01DX001 (ip), vehicle: carboxymethylcellulose (CMC) 100 % of control

CCCCN=C(N)c1ccc(NC(=O)c2ccc(C(=O)Nc3ccc(C(N)=NCCCC)cc3)cc2)cc1
active: dose: 6.0 mg/kg/injection, schedule: Q01DX Z (ip), vehicle: methylcellulose (MC) 212 % of control
inactive: dose: 6.0 mg/kg/injection, schedule: Q01DX001 (ip), vehicle: methylcellulose (MC) 110 % of control | dose: 12.0 mg/kg/injection, schedule: Q01DX Z (ip), vehicle: methylcellulose (MC) 100 % of control | dose: 15.0 mg/kg/injection, schedule: Q01DX001 (ip), vehicle: methylcellulose (MC) 119 % of control

N#Cc1ccccc1CC(O)(c1ccccc1)c1ccccc1
inactive: dose: 50.0 mg/kg/injection, schedule: Q01DX001 (ip), vehicle: saline 96 % of control | [1] 102 % of control | [2] 93 % of control | [3] 91 % of control

COc1c([N+](=O)[O-])cc(C)nc1Cl
inactive: [1] 95 % of control | [2] 101 % of control | [3] 101 % of control

O=C(N=P(c1ccccc1)(c1ccccc1)c1ccccc1)c1ccccc1
inactive: [1] 94 % of control | [2] 100 % of control | [3] 96 % of control

CCOC(=O)C1=NN(c2ccccc2)C(=O)C1N=Nc1ccc(S(=O)(=O)Nc2ncccn2)cc1 (stereo not given)
inactive: [1] 98 % of control | [2] 96 % of control | [3] 101 % of control

CC(C)CCCC(C)C1CCC2C3CCC4CC(=O)CCC4(C)C3CCC12C (stereo not given)
inactive: dose: 12.5 mg/kg/injection, schedule: Q01DX009 (ip), vehicle: Klucel (hydroxypropylcellulose) (HPC) 104 % of control | dose: 25.0 mg/kg/injection, schedule: Q01DX009 (ip), vehicle: Klucel (hydroxypropylcellulose) (HPC) 107 % of control and 90 % of control | [4] 90 % of control | [5] 87 % of control | [6] 93 % of control | [7] 107 % of control

CCCCCCCCCCCCCCOC(=O)Cl
inactive: [4] 101 % of control | [8] 97 % of control | [9] 86 % of control

O=c1c2ccccc2nc(-c2ccccc2)n1/N=C/c1ccccc1O
inactive: [4] 103 % of control | [8] 103 % of control | [9] 100 % of control

CCN(CC)CCOC(=O)N(c1ccccc1)c1ccccc1
inactive: dose: 6.25 mg/kg/injection, schedule: Q01DX009 (ip), vehicle: saline 103 % of control | dose: 12.5 mg/kg/injection, schedule: Q01DX009 (ip), vehicle: saline 106 % of control | dose: 25.0 mg/kg/injection, schedule: Q01DX009 (ip), vehicle: saline 104 % of control | dose: 25.0 mg/kg/injection, schedule: Q04DX003 (ip), vehicle: saline 92 % of control | dose: 50.0 mg/kg/injection, schedule: Q01DX009 (ip), vehicle: saline 95 % of control | dose: 50.0 mg/kg/injection, schedule: Q04DX003 (ip), vehicle: saline 103 % of control | dose: 100.0 mg/kg/injection, schedule: Q01DX009 (ip), vehicle: saline 100 % of control | dose: 100.0 mg/kg/injection, schedule: Q04DX003 (ip), vehicle: saline 103 % of control

COC(=O)c1cn2ccc(C(=O)c3ccccc3)cc2c1C(=O)OC
inactive: [5] 95 % of control | [6] 106 % of control | [7] 98 % of control

CCc1cccc[n+]1CC(=O)c1ccc(-c2ccccc2)cc1
inactive: dose: 100.0 mg/kg/injection, schedule: Q04DX003 (ip), vehicle: Klucel (hydroxypropylcellulose) (HPC) 86 % of control

O=C1OC(c2c3ccccc3cc3ccccc23)c2ccccc21 (stereo not given)
inactive: dose: 50.0 mg/kg/injection, schedule: Q01DX009 (ip), vehicle: saline with Tween-80 98 % of control | dose: 100.0 mg/kg/injection, schedule: Q01DX009 (ip), vehicle: saline with Tween-80 98 % of control | dose: 200.0 mg/kg/injection, schedule: Q01DX009 (ip), vehicle: saline with Tween-80 95 % of control
